Data reported in patent publication US4656161A, “Increasing the enteral absorbability of heparin or heparinoids” (BASF Aktiengesellschaft, priority 1983, dated 1987).

Key:
[1] = Heparin/heparinoid concentration in blood after oral administration of capsules to beagles (citrated plasma, chromogenic substrate); type: in vivo, beagle dogs; conditions: for heparin or heparinoid concentration in the blood, without surfactant (in words): without the addition of a surfactant; for heparin level in the blood, without surfactant: in the absence of added surfactant
Description: (§1) A. 2 of the capsules obtained as described in Examples 1a-1d or 3a-3b (total dose 28,000 IU of heparin or 700 mg of heparinoid) were administered orally to each of a number of beagles weighing about 7 kg. The concentration of active compound in the blood of the dogs was determined before and 30 minutes, 1 hour and 2, 3, 5, 8, 14 and 24 hours after the administration of heparin. The heparin was determined in citrated plasma, using a chromogenic substrate (cf. Thromb. Res. 8 (1976), 413 and Volume 2 of Reports, Thrombosis and Hemostasis Congress, Munster, 1982, Schattauer Verlag, Stuttgart, pages 238-246). The thrombin time was also determined (cf. Kleiner Gerinnungstatus, published by Behringwerke, 1982, page 40). The heparin or heparinoid concentration (c) in the blood and the quotient T of the thrombin time of the treated animals to that of the untreated animals reached their highest values after 2 hours.
(§2) Since, in contrast to heparin, heparinoids prolong the bleeding time (in this case the thrombin time) only slightly, if at all, they are not standardized on the basis of anticoagulant activity.

thrombin time = experiment: Thrombin time after oral administration of capsules to beagles; type: in vivo, beagle dogs; conditions: without the addition of a surfactant
Description: as §1, §2

heparin level in the blood, without surfactant [1] | Substance | heparin or heparinoid concentration in the blood, without surfactant (in words) [1] | thrombin time, without surfactant (in words) (thrombin time)
 | heparin [heparin used in Example 1a] | did not result in a measurable heparin or heparinoid concentration in the blood | did not change the thrombin time
 | heparin [heparin used in Example 1b] | did not result in a measurable heparin or heparinoid concentration in the blood | did not change the thrombin time
0.15 IU/ml | heparin [heparin used in Example 1c] |  | no change in the thrombin time
0.25 IU/ml | heparin [heparin used in Example 1d] |  | no change in the thrombin time
 | mucopolysaccharide polysulfate [heparinoid used in Example 3b] | did not result in a measurable heparin or heparinoid concentration in the blood | did not change the thrombin time
 | sodium pentosan polysulfate [heparinoid used in Example 3a] | did not result in a measurable heparin or heparinoid concentration in the blood | did not change the thrombin time
